System: subjects with major depressive disorder (MDD) who were inadequate responders to citalopram
Experiment: SIS (Sheehan Irritability Scale), total and individual items, Phase 2b add-on trial
Format: in vivo, human
Design: SIS Adj. Mean change / SIS total score change Adjusted Mean / SIS Anger With Others change Adjusted Mean / SIS Anger With Self change Adjusted Mean / SIS Edginess change Adjusted Mean / SIS Irritability change Adjusted Mean / SIS Moodiness change Adjusted Mean / SIS Temper change Adjusted Mean: scale not given here
Details: for SIS Difference vs placebo / SIS Adj. Mean change: ITT; for SIS Difference vs placebo: Week 8 to Week 16 LOCF; for SIS Adj. Mean change: change from Week 8 (double-blind baseline) to Week 16 LOCF, add-on to citalopram
Description: In more detail, a multi-center double-blind, randomized, placebo-controlled, parallel group, flexible dose titration study of TC-5214 as adjunctive therapy in subjects with major depressive disorder (MDD) who were inadequate responders to citalopram was conducted in centers in the US and India. The study consisted of a screening period, baseline/washout period, open-label phase, double-blind phase, and a follow-up visit. Subject participation in the study could continue for up to 16 weeks of treatment. Following a washout period of up to 28 days for other antidepressants, subjects with MDD and a MADRS total score >/=28 and a Clinical Global Impression-Severity (CGI-S) score >/=4 were enrolled on Day 1 into an open-label citalopram-only phase of the study. This phase lasted 8 weeks, with citalopram (CIT) dose increased from a once-daily dose of 20 mg (Day 1 through Week 4) to 40 mg (Week 4 through Week 8). A total of 579 subjects entered the open-label citalopram phase. At Week 8, subjects who tolerated 40 mg CIT, but whose MADRS score was reduced <50% from baseline and no lower than 17, and CGI-S≧4, were considered inadequate responders. These subjects (n=270) were randomized in a double-blind fashion to receive either placebo or TC-5214-23 as add-on therapy to continued CIT. The double-blind phase of the study also lasted 8 weeks (Week 8 to Week 16). Study drug, TC-5214-23 or placebo, was started at 2 mg daily (1 mg twice per day [BID] dosing), added on to continuing CIT (40 mg PO qd). After 2 weeks of treatment, the dose of TC-5214 could be increased to 4 mg (2 mg BID) or continued unchanged, with up-titration based upon good tolerability and inadequate therapeutic response. After a further 2 weeks, the dose of TC-5214 could be increased again to 8 mg (4 mg BID) if judged appropriate by the investigator, based upon good tolerability and inadequate therapeutic response. At any time during the double-blind phase of the study, placebo or TC-5214-23 could be reduced to the previous dose level following the emergence of unacceptable adverse events (AEs). […] At this follow-up, any signs or symptoms of relapse were evaluated. If a subject was prematurely discontinued from the study between Week 8 and Week 16 for any reason, the investigator was to make every effort to perform all evaluations as per protocol, assuming the subject had reached the end of the double-blind add-on treatment phase. These evaluations were to be made as soon as possible and within 2 weeks of discontinuation. […] There was no meaningful difference in results as a function of age, gender, site, or smoking status. [table] With regard to efficacy endpoints, the following tables present efficacy used in the ITT (Intent-to-Treat) and PP (Per Protocol) populations unless otherwise specific. The primary inference was based upon Week 16 visit using the ITT population. Change from baseline was obtained by subtracting the baseline values from the individual on-treatment values. Change from Week 16 was obtained by subtracting the Week 16 values from the individual follow-up visit (Week 18/19) values. If either the baseline or Week 16 or on-treatment or follow-up value was missing, the change from baseline or Week 16 value was also set to missing. To account for missing data, the last observation carry forward (LOCF) method was used for the ITT and PP populations. Thus, the last available on-therapy observation for a subject, including the observation at premature discontinuation, was used to estimate subsequent missing data points. For efficacy, baseline data were collected at Week 8 in the double-blind augmentation phase electronic case report form pages. For SIS, the endpoint was the change from Week 8 (double-blind baseline) to Week 16 of the SIS. Changes were analyzed using ANCOVA. Each SIS item score was also analyzed using ANCOVA. […]

[1] = ITT Population, Double Blind Week 16 LOCF, change from Week 8 (double-blind baseline)
[2] = ITT Population, Double Blind Week 18 LOCF (Follow-up)
[3] = ITT and PP populations, result in words
[4] = PP Population, Double Blind Week 16 LOCF, change from Week 8 (double-blind baseline)
[5] = PP Population, Double Blind Week 18 LOCF (Follow-up)

How did the “SIS total score change Adjusted Mean” value [1] turn out when `CNC1(C)C2CCC(C2)C1(C)C` (stereo in doubt) [TC-5214, (S)—N,2,3,3-tetramethylnorbornan-2-amine] was run?
The value was −18.21.

And the “SIS total score change Mean Difference between TC-5214 and Placebo” value [1]?
Its value is 8.76.

What about the “SIS total score change Adjusted Mean” value [2] of the same compound?
The value was −0.68.

And the “SIS total score change Mean Difference between TC-5214 and Placebo” value [2]?
Its value is −0.51.

What about the “SIS total score change from baseline compared with placebo” value [3] of the same compound?
Its value is “statistically significant decreases (improvements)”.

What about the “each SIS individual item change from baseline compared with placebo” value [3] of the same compound?
The value was “statistically significant decreases (improvements)”.

And the “SIS Difference vs placebo” value?
The value was −8.54 (−11.65, −5.44).

And the “SIS Difference vs placebo” value (listed as TC-5214 + CIT)?
The value was −8.54.

And the “SIS Adj. Mean change” value?
The value was −18.21 (1.12).

And the “SIS Adj. Mean change” value (listed as TC-5214 + CIT)?
Its value is −18.21.

What about the “SIS total score change Adjusted Mean” value [4] of the same compound?
Its value is −19.96.

And the “SIS total score change Mean Difference between TC-5214 and Placebo” value [4]?
Its value is 10.04.

What about the “SIS total score change Adjusted Mean” value [5] of the same compound?
The value was −0.77.

What about the “SIS total score change Mean Difference between TC-5214 and Placebo” value [5] of the same compound?
Its value is −0.34.

Source: patent US20120190752A1, “EXO-S-MECAMYLAMINE METHOD, USE, AND COMPOUND FOR TREATMENT” (Targacept Inc., priority 2009, published 2012)
